In US9637453B2, “3-spirocyclic-6-hydroxamic acid tetralins as HDAC inhibitors” (Forma Therapeutics, Inc., priority 2015, dated 2017):

How the values were obtained:
[1] = target: T1, Full length human recombinant HDAC11 (Homo sapiens, UniProt Q96DB2); assay: In vitro histone deacetylase assay, enzymatic HDAC11 (electrophoretic mobility shift assay); format: biochemical; conditions: 10 nM HDAC11; 2 μM peptide substrate FAM-RHKK(tri-fluor-Ac)—NH2; 25° C.; 12 concentrations; read-out: HDAC11 Activity Range (IC50)
T1 construct: Full length human recombinant HDAC6 and HDAC11 proteins were expressed in baculoviral system
T1 sequence (Q96DB2 1-347): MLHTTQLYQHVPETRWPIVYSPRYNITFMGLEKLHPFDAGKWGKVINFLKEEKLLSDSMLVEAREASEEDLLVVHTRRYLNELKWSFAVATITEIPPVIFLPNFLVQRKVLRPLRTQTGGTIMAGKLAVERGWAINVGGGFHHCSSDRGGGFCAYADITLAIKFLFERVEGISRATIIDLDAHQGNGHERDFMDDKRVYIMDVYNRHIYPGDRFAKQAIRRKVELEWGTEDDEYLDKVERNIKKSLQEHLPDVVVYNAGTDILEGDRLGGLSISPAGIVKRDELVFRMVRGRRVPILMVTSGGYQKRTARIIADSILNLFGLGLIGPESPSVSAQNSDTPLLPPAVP
Method in brief: (§1)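 Baculovirus-expressed full-length enzymes (HDAC6 1 nM, FAM-RHKK(Ac)-NH2; HDAC11 10 nM, FAM-RHKK(tri-fluor-Ac)-NH2), 2 μM substrate, HEPES pH 7.5, 25°C, 12-point 3× dilutions. Product/substrate separated by microfluidic mobility shift after SDS quench; IC50 from 4-parameter fit, reported as +/++/+++ bins.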

[2] = target: T2, Full length human recombinant HDAC6 (Homo sapiens, UniProt Q9UBN7); assay: In vitro histone deacetylase assay, enzymatic HDAC6 (electrophoretic mobility shift assay); format: biochemical; conditions: 1 nM HDAC6; 2 μM peptide substrate FAM-RHKK(Ac)—NH2; 25° C.; 12 concentrations; read-out: HDAC6 Activity Range (IC50)
T2 construct: Full length human recombinant HDAC6 and HDAC11 proteins were expressed in baculoviral system
T2 sequence (Q9UBN7 1-1215): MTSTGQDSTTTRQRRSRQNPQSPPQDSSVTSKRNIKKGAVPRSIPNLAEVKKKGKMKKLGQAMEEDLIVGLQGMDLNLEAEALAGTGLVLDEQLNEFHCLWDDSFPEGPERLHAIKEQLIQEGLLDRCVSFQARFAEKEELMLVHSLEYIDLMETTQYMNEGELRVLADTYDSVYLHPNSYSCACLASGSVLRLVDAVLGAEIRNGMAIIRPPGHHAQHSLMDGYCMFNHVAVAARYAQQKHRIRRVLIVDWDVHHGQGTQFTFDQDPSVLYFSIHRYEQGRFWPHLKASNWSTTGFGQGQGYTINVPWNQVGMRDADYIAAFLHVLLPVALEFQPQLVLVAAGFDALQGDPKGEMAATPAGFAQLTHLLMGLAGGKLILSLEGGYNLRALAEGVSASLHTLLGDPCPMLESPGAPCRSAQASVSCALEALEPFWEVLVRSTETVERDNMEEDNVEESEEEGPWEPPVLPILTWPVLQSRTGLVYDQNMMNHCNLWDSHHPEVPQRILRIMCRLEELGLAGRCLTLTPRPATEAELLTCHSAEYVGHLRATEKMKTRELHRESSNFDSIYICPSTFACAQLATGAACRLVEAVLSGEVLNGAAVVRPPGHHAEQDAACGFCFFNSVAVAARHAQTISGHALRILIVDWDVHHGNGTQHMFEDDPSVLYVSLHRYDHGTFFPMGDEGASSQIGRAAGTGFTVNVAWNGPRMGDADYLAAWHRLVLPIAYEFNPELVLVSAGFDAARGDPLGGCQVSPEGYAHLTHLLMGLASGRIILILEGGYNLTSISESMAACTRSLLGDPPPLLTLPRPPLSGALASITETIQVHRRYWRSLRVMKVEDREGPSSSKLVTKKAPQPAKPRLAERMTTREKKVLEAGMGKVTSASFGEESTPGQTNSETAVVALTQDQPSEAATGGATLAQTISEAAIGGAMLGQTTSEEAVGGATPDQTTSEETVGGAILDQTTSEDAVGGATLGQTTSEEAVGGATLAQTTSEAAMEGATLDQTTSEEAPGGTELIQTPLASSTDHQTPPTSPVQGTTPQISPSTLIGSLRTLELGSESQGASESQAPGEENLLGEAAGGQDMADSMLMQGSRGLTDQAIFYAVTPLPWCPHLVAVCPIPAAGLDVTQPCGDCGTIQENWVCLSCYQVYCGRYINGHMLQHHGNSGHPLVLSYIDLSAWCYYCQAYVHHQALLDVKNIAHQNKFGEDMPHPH
Method in brief: as §1

SMILES	IC50 [1] [nM]	IC50 [2] [nM]
O=C(NO)c1ccc2c(c1)C[C@@]1(CC2)CC(=O)N(CC2COC2)C1 [Compound I-147, (S)—N-hydroxy-1′-(oxetan-3-ylmethyl)-5′-oxo-3,4-dihydro-1H-spiro[naphthalene-2,3′-pyrrolidine]-7-carboxamide]	> 500	≤ 100
CN1CC[C@@]2(CCc3ccc(C(=O)NO)cc3C2)C1 [Compound I-18, (S)—N-hydroxy-1′-methyl-3,4-dihydro-1H-spiro[naphthalene-2,3′-pyrrolidine]-7-carboxamide]	> 500	100 to 500
COCCCN1C[C@]2(CCc3ccc(C(=O)NO)cc3C2)CC1=O [Compound I-136, (S)—N-hydroxy-1′-(3-methoxypropyl)-5′-oxo-3,4-dihydro-1H-spiro[naphthalene-2,3′-pyrrolidine]-7-carboxamide]	> 500	≤ 100
O=C(NO)c1ccc2c(c1)C[C@@]1(CC2)CCN(c2ccccn2)C1=O [Compound I-44, (S)—N-hydroxy-2′-oxo-1′-(pyridin-2-yl)-3,4-dihydro-1H-spiro[naphthalene-2,3′-pyrrolidine]-7-carboxamide]	> 500	≤ 100
CC(=O)N1CCC2(CCc3ccc(C(=O)NO)cc3C2)C1 (stereo not drawn) [Compound I-12, 1′-acetyl-N-hydroxy-3,4-dihydro-1H-spiro[naphthalene-2,3′-pyrrolidine]-7-carboxamide]	> 500	≤ 100
O=C(NO)c1ccc2c(c1)C[C@]1(CC2)CCN(c2nc3ccccc3[nH]2)C1=O [Compound I-32, (R)-1′-(1H-benzo[d]imidazol-2-yl)-N-hydroxy-2′-oxo-3,4-dihydro-1H-spiro[naphthalene-2,3′-pyrrolidine]-7-carboxamide]	> 500	≤ 100
O=C(NO)c1ccc2c(c1)C[C@]1(CC2)CC(=O)N(c2ccccc2)C1 [Compound I-145, (R)—N-hydroxy-5′-oxo-1′-phenyl-3,4-dihydro-1H-spiro[naphthalene-2,3′-pyrrolidine]-7-carboxamide]	> 500	≤ 100
CCN1C[C@]2(CCc3ccc(C(=O)NO)cc3C2)CC1=O [Compound I-143, (S)-1′-ethyl-N-hydroxy-5′-oxo-3,4-dihydro-1H-spiro[naphthalene-2,3′-pyrrolidine]-7-carboxamide]	> 500	≤ 100
COc1cccc(CN2CCC3(CCc4ccc(C(=O)NO)cc4C3)C2)c1 (stereo not drawn) [Compound I-14, N-hydroxy-1′-(3-methoxybenzyl)-3,4-dihydro-1H-spiro[naphthalene-2,3′-pyrrolidine]-7-carboxamide]	> 500	≤ 100
O=C(NO)c1ccc2c(c1)CC1(CCNC1)CC2 (stereo not drawn) [Compound I-8, N-hydroxy-3,4-dihydro-1H-spiro[naphthalene-2,3′-pyrrolidine]-7-carboxamide]	> 500	100 to 500

The remaining lines, values ahead:

IC50 [1] [nM]	IC50 [2] [nM]	SMILES
> 500	≤ 100	O=C(NO)c1ccc2c(c1)C[C@]1(CC2)CCN(Cc2ccc(Cl)cc2)C1=O [Compound I-38, (R)-1′-(4-chlorobenzyl)-N-hydroxy-2′-oxo-3,4-dihydro-1H-spiro[naphthalene-2,3′-pyrrolidine]-7-carboxamide]
> 500	≤ 100	O=C(NO)c1ccc2c(c1)C[C@@]1(CC2)CCN(Cc2cccc(F)c2)C1=O [Compound I-72, (S)-1′-(3-fluorobenzyl)-N-hydroxy-2′-oxo-3,4-dihydro-1H-spiro[naphthalene-2,3′-pyrrolidine]-7-carboxamide]
> 500	≤ 100	O=C(NO)c1ccc2c(c1)OC1(CC2)CCN(C(=O)Nc2ccccc2)CC1 [II-4, N7-hydroxy-N1′-phenylspiro[chroman-2,4′-piperidine]-1′,7-dicarboxamide]
> 500	100 to 500	CC(C)N1CCC2(CCc3ccc(C(=O)NO)cc3C2)C1=O (stereo not drawn) [Compound I-24, N-hydroxy-1′-isopropyl-2′-oxo-3,4-dihydro-1H-spiro[naphthalene-2, 3′-pyrrolidine]-7-carboxamide]
> 500	≤ 100	O=C(NO)c1ccc2c(c1)C[C@]1(CC2)CCN(Cc2ccccn2)C1=O [Compound I-98, (R)—N-hydroxy-2′-oxo-1′-(pyridin-2-ylmethyl)-3,4-dihydro-1H-spiro[naphthalene-2,3′-pyrrolidine]-7-carboxamide]
≤ 100	≤ 100	O=C(NO)c1ccc2c(c1)C[C@]1(CC2)CCN(Cc2ccccc2Cl)C1=O [Compound I-89, (R)-1′-(2-chlorobenzyl)-N-hydroxy-2′-oxo-3,4-dihydro-1H-spiro[naphthalene-2,3′-pyrrolidine]-7-carboxamide]
100 to 500	≤ 100	COc1ccc(CCN2CCC3(CCc4ccc(C(=O)NO)cc4C3)C2=O)cc1 (stereo not drawn) [Compound I-20, N-hydroxy-1′-(4-methoxyphenethyl)-2′-oxo-3,4-dihydro-1H-spiro[naphthalene-2,3′-pyrrolidine]-7-carboxamide]
100 to 500	≤ 100	O=C(NO)c1ccc2c(c1)CC1(CC2)CCN(c2ccccc2)C1=O (stereo not drawn) [Compound I-26, N-hydroxy-2′-oxo-1′-phenyl-3,4-dihydro-1H-spiro[naphthalene-2,3′-pyrrolidine]-7-carboxamide]
≤ 100	≤ 100	O=C(NO)c1ccc2c(c1)C[C@@]1(CC2)CCN(Cc2ccc(Cl)cc2)C1=O [Compound I-37, (S)-1′-(4-chlorobenzyl)-N-hydroxy-2′-oxo-3,4-dihydro-1H-spiro[naphthalene-2,3′-pyrrolidine]-7-carboxamide]
≤ 100	≤ 100	O=C(NO)c1ccc2c(c1)C[C@]1(CC2)CCN(Cc2ccc(Cl)cn2)C1=O [Compound I-40, (R)-1′-((5-chloropyridin-2-yl)methyl)-N-hydroxy-2′-oxo-3,4-dihydro-1H-spiro[naphthalene-2,3′-pyrrolidine]-7-carboxamide]
100 to 500	≤ 100	COc1ccccc1CN1CC[C@]2(CCc3ccc(C(=O)NO)cc3C2)C1=O [Compound I-93, (R)—N-hydroxy-1′-(2-methoxybenzyl)-2′-oxo-3,4-dihydro-1H-spiro[naphthalene-2,3′-pyrrolidine]-7-carboxamide]
≤ 100	≤ 100	O=C(NO)c1ccc2c(c1)CC1(CC2)CCN(Cc2ccc(Cl)c(C(F)(F)F)c2)C1=O (stereo not drawn) [Compound I-27, 1′-(4-chloro-3-(trifluoromethyl)benzyl)-N-hydroxy-2′-oxo-3,4-dihydro-1H-spiro[naphthalene-2,3′-pyrrolidine]-7-carboxamide]
≤ 100	≤ 100	O=C(NO)c1ccc2c(c1)C[C@]1(CC2)CCN(Cc2cccc(Cl)c2)C1=O [Compound I-101, (R)-1′-(3-chlorobenzyl)-N-hydroxy-2′-oxo-3,4-dihydro-1H-spiro[naphthalene-2,3′-pyrrolidine]-7-carboxamide]
≤ 100	≤ 100	Cc1ccc(CN2CC[C@@]3(CCc4ccc(C(=O)NO)cc4C3)C2=O)cc1 [Compound I-122, (S)—N-hydroxy-1′-(4-methylbenzyl)-2′-oxo-3,4-dihydro-1H-spiro[naphthalene-2,3′-pyrrolidine]-7-carboxamide]
